From ChEMBL document CHEMBL1141082, “4-Anilino-7,8-dialkoxybenzo[g]quinoline-3-carbonitriles as potent Src kinase inhibitors” (J Med Chem, 2005)

Columns and labels:
Mus musculus [1] = assay: Plasma levels in nude mouse after administration at a single dose of 50 mg/kg ip after 24 hours; format: functional; details: route intraperitoneal
Mus musculus [2] = species on record: Mus musculus; details: dose 50 mg/kg; route intraperitoneal
Mus musculus [3] = assay: Plasma levels in nude mouse after administration at a single dose of 50 mg/kg ip after 4 hours; format: functional; details: route intraperitoneal
Mus musculus [4] = assay: Plasma levels in nude mouse after administration at a single dose of 50 mg/kg ip after 0.5 hours; format: functional; details: route intraperitoneal
Mus musculus [5] = assay: Plasma levels in nude mouse after administration at a single dose of 50 mg/kg ip after 8 hours; format: functional; details: route intraperitoneal
[6] = target: Proto-oncogene tyrosine-protein kinase Src (Homo sapiens, UniProt P12931); assay: Inhibitory concentration against Src kinase
[7] = target: Cyclin-dependent kinase 4 (Homo sapiens, UniProt P11802); assay: Inhibitory concentration against CDK4
Mus musculus [8] = assay: Plasma levels in nude mouse after administration at a single dose of 50 mg/kg ip after 8 hr; format: functional; details: route intraperitoneal
[9] = target: Serine/threonine-protein kinase AKT (Homo sapiens, UniProt P31751+Q9Y243+P31749); assay: Inhibitory concentration against AKT; format: protein assay
Mus musculus [10] = assay: Plasma levels in nude mouse after administration at a single dose of 50 mg/kg ip after 4 hr; format: functional; details: route intraperitoneal
[11] = target: Receptor tyrosine-protein kinase erbB-2 (Homo sapiens, UniProt P04626); assay: nhibitory concentrations against ErbB-2
Receptor tyrosine-protein kinase erbB-2, sequence (P04626 whole entry): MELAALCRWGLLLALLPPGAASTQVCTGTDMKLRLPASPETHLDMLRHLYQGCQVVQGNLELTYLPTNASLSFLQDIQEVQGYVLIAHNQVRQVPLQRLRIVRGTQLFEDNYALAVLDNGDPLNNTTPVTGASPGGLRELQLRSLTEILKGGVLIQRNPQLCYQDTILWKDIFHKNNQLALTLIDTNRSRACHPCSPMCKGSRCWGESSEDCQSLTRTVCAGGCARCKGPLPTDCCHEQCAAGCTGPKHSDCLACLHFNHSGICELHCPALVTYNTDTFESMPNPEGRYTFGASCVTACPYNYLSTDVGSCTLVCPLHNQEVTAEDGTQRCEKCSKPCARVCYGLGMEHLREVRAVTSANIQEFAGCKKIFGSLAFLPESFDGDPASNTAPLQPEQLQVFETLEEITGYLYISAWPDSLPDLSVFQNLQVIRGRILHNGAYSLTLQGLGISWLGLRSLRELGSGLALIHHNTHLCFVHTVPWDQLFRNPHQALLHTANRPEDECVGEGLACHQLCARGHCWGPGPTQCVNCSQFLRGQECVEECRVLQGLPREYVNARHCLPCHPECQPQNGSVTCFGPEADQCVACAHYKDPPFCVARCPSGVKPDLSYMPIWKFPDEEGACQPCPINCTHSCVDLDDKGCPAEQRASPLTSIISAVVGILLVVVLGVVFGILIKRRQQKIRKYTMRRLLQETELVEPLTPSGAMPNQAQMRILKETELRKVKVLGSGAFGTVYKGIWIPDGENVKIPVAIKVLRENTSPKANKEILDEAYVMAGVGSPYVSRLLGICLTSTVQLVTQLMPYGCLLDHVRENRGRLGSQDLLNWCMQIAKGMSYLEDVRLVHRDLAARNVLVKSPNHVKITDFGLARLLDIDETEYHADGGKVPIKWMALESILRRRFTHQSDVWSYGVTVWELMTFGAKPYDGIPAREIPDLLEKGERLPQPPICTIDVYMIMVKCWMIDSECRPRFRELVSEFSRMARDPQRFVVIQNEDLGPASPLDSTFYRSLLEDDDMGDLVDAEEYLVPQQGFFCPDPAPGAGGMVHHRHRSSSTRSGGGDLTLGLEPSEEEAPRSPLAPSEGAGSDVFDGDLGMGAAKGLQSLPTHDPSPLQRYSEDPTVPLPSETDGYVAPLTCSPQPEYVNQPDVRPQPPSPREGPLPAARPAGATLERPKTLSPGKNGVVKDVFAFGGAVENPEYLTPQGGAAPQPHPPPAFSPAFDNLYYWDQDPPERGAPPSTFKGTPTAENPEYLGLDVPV

Proto-oncogene tyrosine-protein kinase Src, sequence (P12931 2-536 limits assumed): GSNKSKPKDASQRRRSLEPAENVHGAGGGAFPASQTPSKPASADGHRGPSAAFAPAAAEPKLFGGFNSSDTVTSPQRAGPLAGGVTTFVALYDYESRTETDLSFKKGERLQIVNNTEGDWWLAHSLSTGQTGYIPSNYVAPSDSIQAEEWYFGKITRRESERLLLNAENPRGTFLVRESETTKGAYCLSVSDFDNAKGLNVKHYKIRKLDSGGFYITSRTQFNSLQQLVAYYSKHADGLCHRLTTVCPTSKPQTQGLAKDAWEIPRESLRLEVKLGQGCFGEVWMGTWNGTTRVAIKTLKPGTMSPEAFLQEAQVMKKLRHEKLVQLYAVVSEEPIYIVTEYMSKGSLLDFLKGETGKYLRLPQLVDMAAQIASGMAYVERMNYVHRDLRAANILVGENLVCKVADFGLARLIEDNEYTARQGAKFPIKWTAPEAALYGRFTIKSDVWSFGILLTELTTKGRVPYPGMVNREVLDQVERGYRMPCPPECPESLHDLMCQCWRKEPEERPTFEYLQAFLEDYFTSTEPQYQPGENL
Cyclin-dependent kinase 4, sequence (P11802 whole entry): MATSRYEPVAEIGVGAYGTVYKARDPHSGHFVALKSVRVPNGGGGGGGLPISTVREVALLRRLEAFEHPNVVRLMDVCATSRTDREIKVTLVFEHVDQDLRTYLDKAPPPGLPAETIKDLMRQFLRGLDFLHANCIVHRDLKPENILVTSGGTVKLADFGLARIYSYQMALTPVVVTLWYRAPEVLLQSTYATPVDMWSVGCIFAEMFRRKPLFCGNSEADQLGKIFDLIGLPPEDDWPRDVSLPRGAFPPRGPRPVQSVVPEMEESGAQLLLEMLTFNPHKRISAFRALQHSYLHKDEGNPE

Structure (SMILES) | Activity (Mus musculus [1]) | Growth inhibiton (Mus musculus [2]) | Activity (Mus musculus [3]) | Activity (Mus musculus [4]) | Activity (Mus musculus [5]) | IC50 [6] | IC50 [7] | Activity (Mus musculus [8]) | IC50 [9] | Activity (Mus musculus [10]) | IC50 [11]
COc1cc(Nc2c(C#N)cnc3cc4cc(OCCN5CCN(C)CC5)c(OC)cc4cc23)c(Cl)cc1Cl | 0.24 µg/mL | 20% | 0.63 µg/mL | 1.3 µg/mL | 0.7 µg/mL | – | – | – | – | – | –
COc1cc(Nc2c(C#N)cnc3cc4cc(OCCN5CCOCC5)c(OC)cc4cc23)c(Cl)cc1Cl | 0.02 µg/mL | 25% | – | 2.1 µg/mL | – | 0.46 nM | > 10 µM | 0.3 µg/mL | > 10 µM | 1.9 µg/mL | 2500 nM
